ChEMBL document CHEMBL3885881, “DrugMatrix”

Species: Rattus norvegicus
Experiment: DrugMatrix - Regimen: Daily Repeat
Type: toxicity, organism-based, Sprague-Dawley
Parameters: regimen Daily Repeat, gender Male, age 6-8 weeks
Details: in vivo, po, route oral GAVAGE, […]; for ABSOLUTE BASOPHIL / ABSOLUTE EOSINOPHIL / ABSOLUTE LYMPHOCYTE / ABSOLUTE MONOCYTE / ABSOLUTE SEGMENTED NEUTROPHIL / BASOPHIL / EOSINOPHIL / ERYTHROCYTE COUNT / HEMATOCRIT / HEMOGLOBIN / LEUKOCYTE COUNT / LYMPHOCYTE / MEAN CORPUSCULAR HEMOGLOBIN / MEAN CORPUSCULAR HEMOGLOBIN CONCENTRATION / MEAN CORPUSCULAR VOLUME / MONOCYTE / NEUTROPHIL / NUCLEATED RED BLOOD CELLS / PLATELET COUNT: tissue Blood; for ALANINE AMINOTRANSFERASE / ALKALINE PHOSPHATASE / ASPARTATE AMINOTRANSFERASE / BLOOD UREA NITROGEN / CARBON DIOXIDE / CHLORIDE / CHOLESTEROL / CREATINE PHOSPHOKINASE / CREATININE / GLUCOSE / LACTATE DEHYDROGENASE / LIPASE / PHOSPHORUS / POTASSIUM / SODIUM / TOTAL BILIRUBIN / TOTAL PROTEIN / URIC ACID: tissue Plasma
[1] = 0 mg/kg, 72 h, dose level Control, time 3 day
[2] = 0 mg/kg, dose level Control, time 7 day
[3] = 100 mg/kg, 72 h, dose level Low, time 3 day

For `Cc1ccc(C)c(OCCCC(C)(C)C(=O)O)c1` [GEMFIBROZIL], the “ABSOLUTE BASOPHIL” value [1] was 0 CELLS/uL, the “ABSOLUTE EOSINOPHIL” value [1] was 37.33 CELLS/uL and the “ABSOLUTE LYMPHOCYTE” value [1] was 6295.33 CELLS/uL. For the same compound, the “ABSOLUTE MONOCYTE” value [1] was 122.17 CELLS/uL, the “ABSOLUTE SEGMENTED NEUTROPHIL” value [1] was 861.83 CELLS/uL and the BASOPHIL [1] was 0%. The EOSINOPHIL [1] was 0.5%, the “ERYTHROCYTE COUNT” value [1] was 5.2 x10E6/uL and the HEMATOCRIT [1] was 32.58%. The HEMOGLOBIN [1] was 12.95 G/DL, the “LEUKOCYTE COUNT” value [1] was 7.32 x10E3/uL and the LYMPHOCYTE [1] was 86%. For the same compound, the “MEAN CORPUSCULAR HEMOGLOBIN” value [1] was 24.93 pg, the “MEAN CORPUSCULAR HEMOGLOBIN CONCENTRATION” value [1] was 39.77 G/DL and the “MEAN CORPUSCULAR VOLUME” value [1] was 62.65 fL. For the same compound, the MONOCYTE [1] was 1.67%, the NEUTROPHIL [1] was 11.83% and the “NUCLEATED RED BLOOD CELLS” value [1] was 0 /100WBC. For the same compound, the “PLATELET COUNT” value [1] was 1029 x10E3/uL, the “ALANINE AMINOTRANSFERASE” value [1] was 63.67 u/L and the “ALKALINE PHOSPHATASE” value [1] was 329.83 u/L. For the same compound, the “ASPARTATE AMINOTRANSFERASE” value [1] was 77.67 u/L, the “BLOOD UREA NITROGEN” value [1] was 18 mg/dL and the “CARBON DIOXIDE” value [1] was 29.67 mmol/L. The CHLORIDE [1] was 102.67 MEQ/L, the CHOLESTEROL [1] was 64.5 mg/dL and the “CREATINE PHOSPHOKINASE” value [1] was 178.67 u/L. For the same compound, the CREATININE [1] was 0.18 mg/dL, the GLUCOSE [1] was 163.83 mg/dL and the “LACTATE DEHYDROGENASE” value [1] was 75.83 u/L. The LIPASE [1] was 10 u/L, the PHOSPHORUS [1] was 8.28 mg/dL and the POTASSIUM [1] was 4.79 MEQ/L. For the same compound, the SODIUM [1] was 142.22 MEQ/L, the “TOTAL BILIRUBIN” value [1] was 0.22 mg/dL and the “TOTAL PROTEIN” value [1] was 5.78 G/DL. For the same compound, the “URIC ACID” value [1] was 0.87 mg/dL, the “ABSOLUTE BASOPHIL” value [2] was 0 CELLS/uL and the “ABSOLUTE EOSINOPHIL” value [2] was 19 CELLS/uL. The “ABSOLUTE LYMPHOCYTE” value [2] was 7803.5 CELLS/uL, the “ABSOLUTE MONOCYTE” value [2] was 117.83 CELLS/uL and the “ABSOLUTE SEGMENTED NEUTROPHIL” value [2] was 1093 CELLS/uL. The BASOPHIL [2] was 0%, the EOSINOPHIL [2] was 0.17% and the “ERYTHROCYTE COUNT” value [2] was 5.84 x10E6/uL. The HEMATOCRIT [2] was 35.75%, the HEMOGLOBIN [2] was 13.87 G/DL and the “LEUKOCYTE COUNT” value [2] was 9.03 x10E3/uL. For the same compound, the LYMPHOCYTE [2] was 87.17%, the “MEAN CORPUSCULAR HEMOGLOBIN” value [2] was 23.78 pg and the “MEAN CORPUSCULAR HEMOGLOBIN CONCENTRATION” value [2] was 38.8 G/DL. The “MEAN CORPUSCULAR VOLUME” value [2] was 61.25 fL, the MONOCYTE [2] was 1.17% and the NEUTROPHIL [2] was 11.5%. The “NUCLEATED RED BLOOD CELLS” value [2] was 0 /100WBC, the “PLATELET COUNT” value [2] was 1098.67 x10E3/uL and the “ALANINE AMINOTRANSFERASE” value [2] was 66 u/L. The “ALKALINE PHOSPHATASE” value [2] was 291.83 u/L, the “ASPARTATE AMINOTRANSFERASE” value [2] was 80.5 u/L and the “BLOOD UREA NITROGEN” value [2] was 15.67 mg/dL. For the same compound, the “CARBON DIOXIDE” value [2] was 30 mmol/L, the CHLORIDE [2] was 101.67 MEQ/L and the CHOLESTEROL [2] was 69.67 mg/dL. For the same compound, the “CREATINE PHOSPHOKINASE” value [2] was 363.33 u/L, the CREATININE [2] was 0.25 mg/dL and the GLUCOSE [2] was 146.5 mg/dL. For the same compound, the “LACTATE DEHYDROGENASE” value [2] was 219.67 u/L, the LIPASE [2] was 11.33 u/L and the PHOSPHORUS [2] was 10.08 mg/dL. The POTASSIUM [2] was 5.22 MEQ/L, the SODIUM [2] was 144.67 MEQ/L and the “TOTAL BILIRUBIN” value [2] was 0.12 mg/dL. The “TOTAL PROTEIN” value [2] was 6.33 G/DL, the “URIC ACID” value [2] was 0.75 mg/dL and the “ABSOLUTE BASOPHIL” value [3] was 0 CELLS/uL. The “ABSOLUTE EOSINOPHIL” value [3] was 135 CELLS/uL, the “ABSOLUTE LYMPHOCYTE” value [3] was 14816.33 CELLS/uL and the “ABSOLUTE MONOCYTE” value [3] was 381.17 CELLS/uL. For the same compound, the “ABSOLUTE SEGMENTED NEUTROPHIL” value [3] was 1317.5 CELLS/uL, the BASOPHIL [3] was 0% and the EOSINOPHIL [3] was 0.67%. For the same compound, the “ERYTHROCYTE COUNT” value [3] was 5.65 x10E6/uL, the HEMATOCRIT [3] was 35.43% and the HEMOGLOBIN [3] was 14.12 G/DL. For the same compound, the “LEUKOCYTE COUNT” value [3] was 16.65 x10E3/uL, the LYMPHOCYTE [3] was 89% and the “MEAN CORPUSCULAR HEMOGLOBIN” value [3] was 25.02 pg. The “MEAN CORPUSCULAR HEMOGLOBIN CONCENTRATION” value [3] was 39.85 G/DL, the “MEAN CORPUSCULAR VOLUME” value [3] was 62.8 fL and the MONOCYTE [3] was 2.33%. For the same compound, the NEUTROPHIL [3] was 8%, the “NUCLEATED RED BLOOD CELLS” value [3] was 0 /100WBC and the “PLATELET COUNT” value [3] was 1185.67 x10E3/uL. For the same compound, the “ALANINE AMINOTRANSFERASE” value [3] was 52.83 u/L, the “ALKALINE PHOSPHATASE” value [3] was 423.5 u/L and the “ASPARTATE AMINOTRANSFERASE” value [3] was 76.17 u/L. For the same compound, the “BLOOD UREA NITROGEN” value [3] was 14.67 mg/dL, the “CARBON DIOXIDE” value [3] was 31 mmol/L and the CHLORIDE [3] was 101.5 MEQ/L. For the same compound, the CHOLESTEROL [3] was 48 mg/dL, the “CREATINE PHOSPHOKINASE” value [3] was 304.5 u/L and the CREATININE [3] was 0.2 mg/dL. The GLUCOSE [3] was 145.83 mg/dL, the “LACTATE DEHYDROGENASE” value [3] was 103.67 u/L and the LIPASE [3] was 11.17 u/L. The PHOSPHORUS [3] was 11.08 mg/dL, the POTASSIUM [3] was 6.55 MEQ/L and the SODIUM [3] was 142.47 MEQ/L. The “TOTAL BILIRUBIN” value [3] was 0.2 mg/dL, the “TOTAL PROTEIN” value [3] was 5.9 G/DL and the “URIC ACID” value [3] was 1.3 mg/dL.
